# Assay results taken from patent publication US5025036A, “Catechol carboxylic acids” (Hoffmann-La Roche Inc., priority 1989, dated 1991).
# Target: T1, Δ^5 -lipoxygenase from rat basophilic leukemia (RBL-1) cells (Rattus norvegicus, UniProt P12527)
# T1 construct: The isolated cytosolic fraction was stored in liquid N2 for up to 8 weeks without loss of 5-LO enzyme activity; endogenous in cells; host or cells: RBL-1 cells (ATCC CRL 1378), 113,000×g supernatant (cytosol)
# T1 sequence (P12527 1-673): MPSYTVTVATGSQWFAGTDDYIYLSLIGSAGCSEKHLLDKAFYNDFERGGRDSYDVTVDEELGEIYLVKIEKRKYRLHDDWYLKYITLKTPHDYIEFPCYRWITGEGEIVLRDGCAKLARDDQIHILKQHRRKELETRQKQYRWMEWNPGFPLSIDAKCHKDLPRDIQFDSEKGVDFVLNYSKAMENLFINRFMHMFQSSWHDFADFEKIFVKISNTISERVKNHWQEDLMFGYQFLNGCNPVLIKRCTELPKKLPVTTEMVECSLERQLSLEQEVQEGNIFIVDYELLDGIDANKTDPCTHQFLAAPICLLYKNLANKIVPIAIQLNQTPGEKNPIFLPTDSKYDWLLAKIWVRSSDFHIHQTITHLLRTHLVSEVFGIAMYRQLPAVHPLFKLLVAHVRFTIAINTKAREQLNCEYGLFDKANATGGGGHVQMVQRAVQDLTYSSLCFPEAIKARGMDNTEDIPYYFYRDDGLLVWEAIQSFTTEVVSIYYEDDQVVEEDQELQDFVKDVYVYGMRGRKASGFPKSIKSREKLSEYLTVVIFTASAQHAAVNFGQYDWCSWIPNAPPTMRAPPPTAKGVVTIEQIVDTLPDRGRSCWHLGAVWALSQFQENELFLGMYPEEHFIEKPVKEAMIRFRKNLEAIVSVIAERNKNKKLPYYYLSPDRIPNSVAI
# Assay: In vitro test for Δ^5-lipoxygenase inhibitors (5-HETE radioimmunoassay)
# Assay type: biochemical
# Conditions: RBL-1 5-LO, 5-HETE formation; read-out: Inhib. of Δ^5 Lipoxygenase IC50
# Protocol: RBL-1 cells (CRL 1378) were obtained from the American Type Culture Collection, Rockville, MD. DMEM and glutamine were purchased from Flow Labs, McLean, Va. FBS (Gibco, Grand Island, N.Y.) was heat-inactivated for 1 hour at 56° C. Reagents for protein determinations were obtained from Biorad, Rockville Center, N.Y. Arachidonic acid (approx. 99%), ATP (disodium salt), BHT, dextran (clinical grade), tetrasodium EDTA, gelatin, gentamycin sulfate solution, reduced glutathione, 1 M HEPES buffer, indomethacin, NaCl, reduced NADPH, Trizma 7.2, and Trizma 8.5 were purchased from Sigma Chemical, St. Louis, Mo. CaCL2 dihydrate, Norit A charcoal, and citric acid monohydrate were obtained from Fisher Scientific, Pittsburgh, Pa. […] A synthetic 5-HETE standard was supplied by Dr. M. Rosenberger, Dept. of Medicinal Chemistry, Hoffmann La-Roche, Nutley, N.J.; [see Corey, E. J., and Hashimoto, S. (1981) Tet. […] Approximately 7-9 days after thawing, RBL-1 cells growing in log phase were seeded at a density of 7500 viable cells/ml in a closed 89-liter spinner flask. […] RBL-1 cells were harvested by centrifugation at 4° C. at 1500×g for 10 minutes and were washed 3 times with ice cold 0.05M tris-hCl, pH 7.2, tetrasodium EDTA (buffer 1). The cells were washed last in 0.05M Tris-HCl containing 14 μM indomethacin, 1 mM glutathione, 1.5 mM NaCl, and 1 mM tetrasodium EDTA (buffer 2), resuspended at a density of 5×108'/ml approximately 10 ml) and disrupted manually at 4° C. using a 40 ml Dounce (type A pestle) homogenizer. After 5 minutes of homogenization, 95% cell lysis was confirmed by phase contrast microscopy. The broken cells were diluted 1:2 with buffer 2 and centrifuged at 12,380×g for 10 minutes at 4° C. to pellet cellular debris and granules. The 12,380×g supernatant was centrifuged at 113,000×g for 60 minutes to pellet microsomes. The high-speed supernatant (5.9±0.48 mg/ml protein) was frozen immediately in 1 ml aliquots using a dry ice/acetone bath. The isolated cytosolic fraction was stored in liquid N2 for up to 8 weeks without loss of 5-LO enzyme activity. Compounds were dissolved at 25 mM concentration in DMSO, then diluted to final concentrations using 95% ethanol. For a typical enzyme assay, the partially purified 5-LO preparation was preincubated with drug or vehicle for 10 minutes at 30° C. The assay tubes were then transferred at a 37° C. water bath where they received arachidonic acid (8.25 μM final concentration) to initiate 5-LO activity. […] The samples were immediately cooled on ice and neutralized by dilution with 0.05M Tris-HCl, pH 8.5, which contained 25 mg/1 BHT. A boiled cytosol control was placed at the end of each assay to emasure non-enzymatic oxidation of arachidonic acid. […] Under the assay conditions described, the 5-LO catalyzed the conversion of arachidonic acid to 5-HPETE which, as a consequence of peroxidase activity, was reduced to 5-HETE. A specific radioimmunoassay was employed to quantitate the amount (pmoles) of 5-HETE formed during the enzyme reaction. To prepare the immunogen, Dr. M. Rosenberger (Dept. of Medicinal Chemistry) converted the racemic 5-HETE lactone (Corey, E. J., and Hashimoto, S. (1981) Tet. Letters, 22, 299-302) to its hydrazine derivative. The hydrazide was conjugated to thiolated Keyhole Limpet Hemocyanin (Young, […]., and Rokach, J. (1982) Prostaglandins 23, 603-613) using N-ethyl-maleimide as previously described for LTB4 by (Young, R., N, Zomboni, R. and Rokach, J. 91983) Prostaglandins, 26, 605-613). New Zealand White rabbits received multiple intradermal injections on their backs with […] conjugate emulsified in complete Freund's adjuvant. A schedule of injections reported by Salmon (Salmon, J. A. (1978) Prostaglandins, 15, 383-397) was followed. After the monthly i.p. booster injections, blood was obtained from the marginal ear vein 5-7 days later and assessed for antibody titer. […]
row,SMILES,IC50 [nM]
1,"CCCc1c(OCCCCCCc2cccc(O)c2O)ccc(C(C)=O)c1O [1-[2-hydroxy-4-[6-(2,3-dihydroxyphenyl)hexyloxy]-3-propylphenyl]ethanone]",30
2,"CCCc1c(OCCCCc2cccc(O)c2O)ccc(C(=O)O)c1O [4-[4-(2,3-dihydroxyphenyl)butoxy]-2-hydroxy-3-propylbenzoic acid]",90
3,"CCCc1c(OCCCCCc2cccc(O)c2O)ccc(C(=O)O)c1O [4-[5-(2,3-Dihydroxyphenyl)pentyloxy]-2-hydroxy-3-propylbenzoic acid]",6

# Other lines, results leading:
row,IC50 [nM],SMILES
1,20,"CCCc1c(OCCCCCCc2cccc(O)c2O)ccc(C(=O)O)c1O [4-[6-(2,3-Dihydroxyphenyl)hexyloxy]-2-hydroxy-3-propylbenzoic acid]"
2,320,"O=C(O)c1ccc(OCCCCCCc2cccc(O)c2O)cc1O [4-[6-(2,3-Dihydroxyphenyl)hexyloxy]-2-hydroxybenzoic acid]"
3,170,"O=C(O)c1ccc(OCCCCCCc2cccc(O)c2O)cc1 [4-[6-(2,3-Dihydroxyphenyl)hexyloxy]benzoic acid]"
4,5,"CCCc1c(OCCCCCCc2ccc(O)c(O)c2)ccc(C(=O)O)c1O [4-[6-(3,4-dihydroxyphenyl)hexyloxy]-2-hydroxy-3-propylbenzoic acid]"
5,100,"CCCc1c(OCCCCCCc2ccc(C(C)C)c(O)c2O)ccc(C(=O)O)c1O [4-[6-[2,3-dihydroxy-4-(1-methylethyl)phenyl]hexyloxy]-2-hydroxy-3-propylbenzoic acid]"
6,5,"CCCc1c(OCCCCCCCc2cccc(O)c2O)ccc(C(=O)O)c1O [4-[7-(2,3-dihydroxyphenyl)heptyloxy]-2-hydroxy-3-propylbenzoic acid]"
7,20,"CCCc1c(OCCCCCCCCCCc2cccc(O)c2O)ccc(C(=O)O)c1O [4-[10-(2,3-dihydroxyphenyl)decyloxy]-2-hydroxy-3-propylbenzoic acid]"

# Same assay, conditions: read-out: Inhib. of Δ^5 Lipoxygenase, % inhibition at 0.01 μM
row,SMILES,inhibition at 0.01 µM [%]
1,"CCCc1c(OCCCCc2cccc(O)c2O)ccc(C(C)=O)c1O [1-[2-Hydroxy-4-[4-(2,3-dihydroxyphenyl)butoxy]-3-propylphenyl]ethanone]",48

# Same assay, conditions: read-out: Inhib. of Δ^5 Lipoxygenase, % inhibition at 0.1 μM
row,inhibition at 0.1 µM [%],SMILES
1,35,"CCCc1c(OCCCCCCc2ccc(C(C)C)c(O)c2O)ccc(C(C)=O)c1O [1-[2-hydroxy-4 [6-[2,3 dihydroxy-4-(1-methylethyl)phenyl]hexyloxy]-3 propylphenyl]ethanone]"
2,62,"CCCc1c(OCCCCCCCCc2cccc(O)c2O)ccc(C(=O)O)c1O [4-[8-(2,3-dihydroxyphenyl)octyloxy]-2-hydroxy-3-propylbenzoic acid]"
3,48,"CCCc1c(O)c(C(=O)O)cc(Cl)c1OCCCCCCc1cccc(O)c1O [5-Chloro-2-hydroxy-4-[6-(2,3-dihydroxyphenyl]hexyloxy]-3-propylbenzoic acid]"

# Same assay, conditions: read-out: Inhib. of Δ^5 Lipoxygenase, % inhibition at 1 μM
row,inhibition at 1 µM [%],SMILES
1,97,"CCCc1c(OCCCc2ccc(O)c(O)c2)ccc(C(=O)O)c1O [4-[3-(3,4-Dihydroxyphenyl)propoxy]-2-hydroxy-3-propylbenzoic acid]"
2,100,"CCCc1c(OCCCCCCc2cccc(O)c2O)ccc(C(=O)OCC)c1O [4-[6-(2,3-Dihydroxyphenyl)hexyloxy]-2-hydroxy-3-propylbenzoic acid ethyl ester]"
